# Earlier results as cited in patent US12465059B2, “Concentrated formic acid composition and its uses thereof” (priority 2018, dated 2025).
# Tests used:
# [1] = versus Acetic Acid, the second best strongest straight chain Organic Acid
# [2] = test system: Rat; details: oral
Structure (SMILES),times stronger than Acetic Acid (acid strength) [1] [times],LD 50 [2] [mg/kg]
O=CO [Methanoic acid],10,
[Cl-].[Na+] [Sodium Chloride],,3000
